Assay results from article PMC12203577, “Molecular Basis of Pseudomonas syringae pv actinidiae Levansucrase Inhibition by a Multivalent Iminosugar” (Journal of Agricultural and Food Chemistry, 2025).
Several values for one entry are separate records, joined by “and”; a condition that tells them apart may be missing. Equal values may be shown once.

How the values were obtained:
Lscγ [1] = target: T1, Lscγ (Pseudomonas syringae pv. actinidiae, UniProt A0A2V0R8Y2); assay: Sucrose hydrolysis assay on recombinant Lscγ (DNS glucose quantification); assay type: biochemical, Pseudomonas syringae pv actinidiae biovar 3 (Psa3); details: for % Residual activity (sucrose hydrolysis), Lscγ: 100 μM iminosugar; for % Residual activity (sucrose hydrolysis), Lscγ / IC50: 60 mM sucrose
T1 construct: 6His-tag (TEV-cleavable) (cleaved yes); made in house; host or cells: E. coli BL21 (DE3)
T1 sequence (A0A2V0R8Y2 whole entry): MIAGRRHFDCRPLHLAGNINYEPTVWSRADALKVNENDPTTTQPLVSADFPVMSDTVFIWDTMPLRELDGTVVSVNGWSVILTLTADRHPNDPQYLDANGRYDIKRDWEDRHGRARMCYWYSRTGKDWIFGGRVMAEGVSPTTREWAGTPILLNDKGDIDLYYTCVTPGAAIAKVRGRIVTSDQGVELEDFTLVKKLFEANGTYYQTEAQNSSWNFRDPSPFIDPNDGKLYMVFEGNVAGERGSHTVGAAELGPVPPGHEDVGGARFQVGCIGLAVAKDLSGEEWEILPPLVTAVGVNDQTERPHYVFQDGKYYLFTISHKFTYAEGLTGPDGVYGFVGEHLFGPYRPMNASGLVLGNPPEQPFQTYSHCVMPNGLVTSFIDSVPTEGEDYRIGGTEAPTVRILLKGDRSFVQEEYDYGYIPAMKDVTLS
Description: (§1) Lscβ and Lscγ were produced and purified as reported by Luti et al. 2021. Briefly, the lscβ and lscγ genes of Psa3 KL103 were cloned in the pNIC28-Bsa4 plasmid and used to transform E. coli BL21 (DE3) cells (New England Biolabs). At A 600 (absorbance at 600 nm) = 0.6, protein expression was induced by 0.4 mM IPTG for 20 h at 18 °C. Then, cells were harvested by […], and recombinant proteins were purified using IMAC Sepharose High Performance (Ge Healthcare) charged with Ni^2+. Subsequently, the proteins were subjected to TEV (Tobacco Etch Virus protease) treatment to remove the 6His-tag and further purified by gel chromatography on a HiLoad 16/600 Superdex 200 pg column driven by an Akta Pure 25 L system (GE Healthcare, Waukesha, WI, USA). Pure proteins were stored in 10 mM Tris/HCl at pH 7.0 at −80 °C until further analysis.
(§2) The enzymatic assays to detect the inhibitory potential of the compounds on sucrose hydrolysis activity of Lscβ and Lscγ were performed according to Luti et al. 2021 in a total volume of 100 μL, using a Bis/Tris buffer (50 mM, pH 7.0). The experiments were performed at an enzyme concentration of 0.03 μg/μL with 60 mM sucrose and a final inhibitor concentration (compounds 1–4) of 100 μM, on a 10-min time frame. After the reactions were stopped, glucose concentration was measured using the DNS (3,5-dinitrosalicylic acid) method to determine spectrophotometrically the inhibitory activity of each compound. The enzymatic activity, measured as μmol/min·mL, was expressed as %residual enzymatic activity=[Ai/Ac]×100 , where A i is the absorbance of the samples with the inhibitors and A c is the absorbance of the control.
(§3) The inhibition levels of compounds 1–4 were analyzed by measuring their IC50. To quantify the IC50 values, we set up different enzymatic reactions at various concentrations of the inhibitor, and we monitored the effects of such concentrations on the enzymatic activity. The assay system was prepared as described above using a Bis/Tris buffer at pH 7.0 and 60 mM sucrose as the substrate. The inhibitor concentrations tested for both enzymes were 0, 0.01, 0.1, 0.5, 1, 10, 25, 50, 100, 200, 400, and 800 μM. Glucose released by the two enzymes was quantified using the DNS method and a microplate spectrophotometer. IC50 was defined as the concentration of a compound causing 50% inhibition, and it was calculated by drawing a dose–response graph for each compound using GraphPad Prism version 8.0 for Windows, GraphPad Software, San Diego, California, USA (www.graphpad.com). The response was expressed on the Y-axis as a percentage of enzymatic activity, and the […].
(§4) The inhibitory mechanism of TPIS (3) was determined by studying the dependence between the main kinetic parameters (K Mapp and V maxapp) and the inhibitor concentrations. Data obtained were fitted using the Michaelis–Menten equation and a nonlinear fitting software. Then, data were analyzed using the double reciprocal plot (Lineweaver–Burk method). Secondary plots were used to calculate the K i values by using GraphPad Prism version 8.0. In detail, the inhibitory mechanism of TPIS (3) was analyzed using 0, 25, 60, and 100 μM inhibitors for Lscβ and 0, 10, 25, and 100 μM for Lscγ. For each concentration, we set the sucrose concentration to 0, 10, 30, 50, 100, 200, 400, and 600 mM, and reactions were performed as previously described using an enzyme concentration of 0.02 μg/μL. After the reactions were stopped, glucose from enzymatic hydrolysis was quantified using the DNS method.

Lscβ = target: T2, Lscβ (Pseudomonas syringae pv. actinidiae, UniProt A0A2V0R8Q9); assay: Sucrose hydrolysis assay on recombinant Lscβ (DNS glucose quantification); assay type: biochemical, Pseudomonas syringae pv actinidiae biovar 3 (Psa3); details: for % Residual activity (sucrose hydrolysis), Lscβ: 100 μM iminosugar; for % Residual activity (sucrose hydrolysis), Lscβ / IC50: 60 mM sucrose
T2 construct: 6His-tag (TEV-cleavable) (cleaved yes); made in house; host or cells: E. coli BL21 (DE3)
T2 sequence (A0A2V0R8Q9 whole entry): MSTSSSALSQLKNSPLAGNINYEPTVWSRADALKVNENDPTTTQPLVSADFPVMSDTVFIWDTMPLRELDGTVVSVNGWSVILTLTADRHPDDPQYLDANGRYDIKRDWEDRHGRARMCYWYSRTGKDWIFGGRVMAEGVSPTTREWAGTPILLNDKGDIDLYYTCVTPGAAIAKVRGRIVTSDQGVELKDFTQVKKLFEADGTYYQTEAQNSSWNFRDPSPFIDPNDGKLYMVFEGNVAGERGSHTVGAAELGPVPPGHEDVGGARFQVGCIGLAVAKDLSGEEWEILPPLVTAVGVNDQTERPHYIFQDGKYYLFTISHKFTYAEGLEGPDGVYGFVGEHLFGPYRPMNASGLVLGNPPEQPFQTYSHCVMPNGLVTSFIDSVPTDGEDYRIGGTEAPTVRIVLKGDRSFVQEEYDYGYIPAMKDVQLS
Description: as §1
as §2, with “The experiments were performed at an enzyme concentration of 0.03 μg/μL with 60 mM sucrose and a final inhibitor concentration (compounds 1–4) of 100 μM, on a 10-min time frame.” left out
as §3, §4

KL103 whole cell lysate [2] = assay: Sucrose hydrolysis by whole cell lysate, KL103; assay type: biochemical, P. syringae pv actinidiae biovar 3; details: 100 μM, 60 mM sucrose
Description: (§5) The strains CFBP8414 (P. syringae pv actinidiae biovar 5) and CFBP1390 (P. syringae pv phaseolicola) were purchased from the CIRM-CFBP French Collection for Plant Associated Bacteria, while KL103 (P. syringae pv actinidiae biovar 3) was isolated in Tuscany in 2015, as reported by Campigli et al., 2023.
(§6) Bacterial cells were grown in 50 mL of Nutrient Sucrose (5% w/v) for 48 h at 180 rpm at 27 °C. Cell suspensions were diluted to an A 600 of 1 (10^7 cfu/mL) in water, and 1 mL aliquots were centrifuged for 5 min at 15,000 × g at 4 °C. The supernatant was discarded, while the pellet was stored at −20 °C for further analysis.
(§7) To extract total protein, cell pellets were resuspended in 1 mL of ice-cold RIPA Buffer with Protease Inhibitors Cocktail, and cells were lysed by sonication using a Fisher Scientific Model 120 Sonic Dismembrator. The sonication step was carried out on ice with three pulses of 15 s at 30% amplitude, each followed by 30 s cooldown. Sonicated samples were cleared by centrifugation for 15 min at 15,000 × g at 4 °C. The pellet was discarded, while the supernatant was collected and stored at −20 °C for further analysis. The hydrolysis enzymatic reaction was carried out as previously described with 60 mM sucrose and 7 μL of cell lysate for 1.5 h. After the samples were boiled, glucose was quantified using the DNS method. […]

[3] = system: CFBP1390 whole cell lysate; assay: Macroscopic levan synthesis by lysate on agar sucrose plate, CFBP1390; assay type: biochemical, P. syringae pv phaseolicola; details: 100 μM, 72 h
Description: (§8) To extract total protein, cell pellets were resuspended in 1 mL of ice-cold RIPA Buffer with Protease Inhibitors Cocktail, and cells were lysed by sonication using a Fisher Scientific Model 120 Sonic Dismembrator. The sonication step was carried out on ice with three pulses of 15 s at 30% amplitude, each followed by 30 s cooldown. Sonicated samples were cleared by centrifugation for 15 min at 15,000 × g at 4 °C. The pellet was discarded, while the supernatant was collected and stored at −20 °C for further analysis. The hydrolysis enzymatic reaction was carried out as previously described with 60 mM sucrose and 7 μL of cell lysate for 1.5 h. After the samples were boiled, glucose was quantified using the DNS method. For macroscopic evaluation of levan synthesis inhibition, a 10 μL drop of lysates was applied on an agar sucrose (5% w/v) plate alone or with 100 μM TPIS (3). A picture was taken after 72 h at 4 °C.

[4] = system: CFBP8414 whole cell lysate; assay: Macroscopic levan synthesis by lysate on agar sucrose plate, CFBP8414; assay type: biochemical, P. syringae pv actinidiae biovar 5; details: 100 μM, 72 h
Description: as §8

Lscγ [5] = target: T1, Lscγ; assay: Levan synthesis turbidity assay with Lscγ; assay type: biochemical, Pseudomonas syringae pv actinidiae biovar 3 (Psa3)
Description: (§9) Inhibition of levan synthesis was monitored using a turbidity assay on a microtiter plate as reported by Luti et al. 2021 with slight modifications. The reaction was performed at 37 °C in 200 μL of 50 mM sodium acetate buffer at pH 5.0 containing 60 mM sucrose and 10 μg of purified Lscγ protein per mL of reaction mixture. The turbidity of the samples at 400 nm was recorded every 5 min using a BioTek Synergy H1 Hybrid Multimode Reader. The percent inhibition was determined at 60 min of incubation, at the maximum absorbance, and was determined as defined in the previous section, Sucrose Hydrolysis Assay. For the IC50 determinations, we used a 0–200 μM TPIS (3) concentration and defined the activity as previously reported. For macroscopic evaluation of levan synthesis inhibition, a 10 μL drop of 1 μg/μL Lscγ was applied on an agar sucrose (5% w/v) plate alone or with 100 μM TPIS (3). A picture was taken after 24 h at 4 °C.

Jack bean α-mannosidase = details: cited from earlier work
[6] = system: CFBP8414 whole cell lysate; assay: Sucrose hydrolysis by whole cell lysate, CFBP8414; assay type: biochemical, P. syringae pv actinidiae biovar 5; details: 100 μM, 60 mM sucrose
Description: as §5, §6, §7

KL103 whole cell lysate [7] = assay: Macroscopic levan synthesis by lysate on agar sucrose plate, KL103; assay type: biochemical, P. syringae pv actinidiae biovar 3; details: 100 μM, 72 h
Description: as §8

[8] = system: CFBP1390 whole cell lysate; assay: Sucrose hydrolysis by whole cell lysate, CFBP1390; assay type: biochemical, P. syringae pv phaseolicola; details: 100 μM, 60 mM sucrose
Description: as §5, §6, §7

Lscγ [9] = target: T1, Lscγ; assay: Macroscopic evaluation of levan synthesis by Lscγ on agar sucrose plate; assay type: biochemical, Pseudomonas syringae pv actinidiae biovar 3 (Psa3); details: 100 μM, 10 μL drop of 1 μg/μL Lscγ, 24 h
Description: as §9

OC[C@H]1NC[C@@H](O)[C@@H]1O [Compound 1, 1,4-dideoxy-1,4-imino-D-arabinitol]
% Residual activity (sucrose hydrolysis), Lscγ (Lscγ [1]; pH 7.0): 101 ± 12% | IC50 (Lscγ [1]; pH 7.0): > 100 µM | % Residual activity (sucrose hydrolysis), Lscβ (Lscβ; pH 7.0): 103 ± 6% | % Residual activity (sucrose hydrolysis), Lscβ (Lscβ; pH 7.0, listed as DAB-1 (1)): do not affect Lscβ activity at all | IC50 (Lscβ; pH 7.0): > 100 µM

OC[C@@H]1[C@@H](O)[C@H](O)CN1CCCCCCn1cc(COCC(COCc2cn(CCCCCCN3C[C@@H](O)[C@H](O)[C@H]3CO)nn2)(COCc2cn(CCCCCCN3C[C@@H](O)[C@H](O)[C@H]3CO)nn2)COCc2cn(CCCCCCN3C[C@@H](O)[C@H](O)[C@H]3CO)nn2)nn1 [Compound 3]
residual sucrose hydrolysis activity, KL103 lysate (KL103 whole cell lysate [2]): 54 ± 7% | macroscopic levan synthesis, CFBP1390 lysate [3]: able to limit levan synthesis | macroscopic levan synthesis, CFBP8414 lysate [4]: able to limit levan synthesis | % Residual activity (sucrose hydrolysis), Lscγ (Lscγ [1]; pH 7.0): 36 ± 5% | IC50 (Lscγ [1]; pH 7.0): 60.9 µM | inhibition mechanism, Lscγ (Lscγ [1]; KMapp increases, Vmaxapp not affected, versus sucrose): competitive inhibitor | Ki (Lscγ [1]; secondary plot, pH 7.0, read-out: K i, sucrose hydrolysis, Lscγ): 20 µM | residual polymerization activity (levan production), Lscγ (Lscγ [5]; 100 μM, pH 5.0, 60 min): 46 ± 3% | IC50 (Lscγ [5]; pH 5.0, 60 min of incubation, estimated, read-out: IC50, polymerization activity of Lscγ): 37 µM | IC50 (Jack bean α-mannosidase; already demonstrated in earlier work): 34 µM | rp/n, Jack bean α-mannosidase (Jack bean α-mannosidase; relative potency with respect to monovalent counterpart per active unit, earlier work): 10 | residual sucrose hydrolysis activity, CFBP8414 lysate [6]: 44 ± 11% | % Residual activity (sucrose hydrolysis), Lscβ (Lscβ; pH 7.0): 49 ± 5% | IC50 (Lscβ; pH 7.0): 22 µM and 22.4 µM | inhibition mechanism, Lscβ (Lscβ; KMapp increases, Vmaxapp does not vary, versus sucrose): competitive inhibitor | Ki (Lscβ; secondary plot, pH 7.0, read-out: K i, sucrose hydrolysis, Lscβ): 29 µM | rp/n (rp divided by valency), Lscβ (Lscβ; sucrose hydrolysis): > 11 | macroscopic levan synthesis, KL103 lysate (KL103 whole cell lysate [7]): able to limit levan synthesis | residual sucrose hydrolysis activity, CFBP1390 lysate [8]: 55 ± 3% | macroscopic levan production by Lscγ on agar sucrose plate (Lscγ [9]): limits levan production

OC[C@@H]1[C@@H](O)[C@H](O)CN1CCO[C@@H]1O[C@H](CO)[C@@H](O)[C@H](O)[C@H]1O [Compound 2]
% Residual activity (sucrose hydrolysis), Lscγ (Lscγ [1]; pH 7.0): 85 ± 8% | IC50 (Lscγ [1]; pH 7.0): > 100 µM | IC50 (Lscβ; pH 7.0): > 100 µM

OCCc1cn(CCCCCCN2C[C@@H](O)[C@H](O)[C@H]2CO)nn1 [Compound 4]
% Residual activity (sucrose hydrolysis), Lscγ (Lscγ [1]; pH 7.0): 126 ± 50% | % Residual activity (sucrose hydrolysis), Lscγ (Lscγ [1]; pH 7.0, listed as PIS (4)): does not inhibit | IC50 (Lscγ [1]; pH 7.0): > 1000 µM | % Residual activity (sucrose hydrolysis), Lscβ (Lscβ; pH 7.0): 93 ± 12% | IC50 (Lscβ; pH 7.0): > 1000 µM | inhibition at 100 µM (Lscβ; pH 7, read-out: inhibitory activity on sucrose hydrolysis, Lscβ): ~7% | remaining activity at 1000 µM (Lscβ; read-out: residual activity at 1 mM, Lscβ): 40%

OC[C@H]1O[C@@](CO)(O[C@H]2O[C@H](CO)[C@@H](O)[C@H](O)[C@H]2O)[C@@H](O)[C@@H]1O [Sucrose]
KMapp of Lscγ for sucrose (Lscγ [1]; substrate, pH 7.0): KMapp(mM) 59 ± 12 | KMapp of Lscβ for sucrose (Lscβ; substrate, pH 7.0): KMapp (mM) 57 ± 11
